“Also recorded” adds a separate entry of the source.
Tests used:
small intestinal crypts = test: Crypt organoid-forming (clonogenicity) assay in 3-D culture; format: cell-based, mouse; conditions: crypts from GW501516-treated mice vs vehicle
[1] = system: Olfm4+ ISCs and Cryptdin 4+ Paneth cells; test: In situ hybridization for Olfm4 and Cryptdin 4, proximal jejunum; format: in vivo, mouse; conditions: GW501516-treated mice vs vehicle
Source text: The in situ hybridization probes used in this study correspond to expressed sequence tags or fully sequenced cDNAs obtained from Open Biosystems. The accession numbers (IMAGE mouse cDNA clone in parenthesis) for these probes are as follows: mouse Olfm4 BC141127 (9055739), mouse Cryptdin 4 BC134360 (40134597). Both sense and antisense probes were generated to ensure specificity by in vitro transcription using DIG RNA labelling mix (Roche) according to the manufacturer's instructions and to previously published detailed methods.^24,44

Compound: Cc1cc(SCc2sc(-c3ccc(C(F)(F)F)cc3)nc2C)ccc1OCC(=O)O [GW501516, 2-[2-methyl-4-[[4-methyl-2-[4-(trifluoromethyl)phenyl]-1,3-thiazol-5-yl]methylsulfanyl]phenoxy]acetic acid]
- organoid-forming capacity of intestinal crypts (small intestinal crypts): more organoids; also recorded: boosted the organoid-forming capacity
- Cryptdin 4+ Paneth cell numbers [1]: no impact; also recorded: remained unchanged
- Olfm4+ ISC numbers per jejunal crypt [1]: augmented; also recorded: increased
